From patent US10556884B2, “Pesticidally active heterocyclic derivatives with sulphur containing substituents” (SYNGENTA PARTICIPATIONS AG, priority 2015, dated 2020) come the findings set out here.

Bounds are passed on as bounds.

What all share (format): in vivo
For assay [1], the system named is Spodoptera littoralis (Egyqptian Cotton Leaf Worm). In words: Spodoptera littoralis, uptake by lettuce roots from agar. Particulars: 144 h, test rate of 12.5 ppm, 6 days after infestation, read-out: effect in at least one of the three categories (mortality, anti-feeding, or growth inhibition). An excerpt: Example B9: Spodoptera littoralis (Egyqptian Cotton Leaf Worm)
Test compounds were applied by pipette from 10′000 ppm DMSO stock solutions into 24-well plates and mixed with agar. Lettuce seeds were placed onto the agar and the multi well plate was closed by another plate which contained also agar. After 7 days the compound was absorbed by the roots and the lettuce grew into the lid plate. The lettuce leaves were then cut off into the lid plate. Spodoptera eggs were pipetted through a plastic stencil onto a humid gel blotting paper and the lid plate was closed with it. The samples were assessed for mortality, anti-feedant effect and growth inhibition in comparison to untreated samples 6 days after infestation.

The test system of assay [2] is Diabrotica Balteata (Corn Root Worm). In words: Diabrotica balteata L2 larvae on maize sprouts. Particulars: 96 h, application rate of 200 ppm, L2 larvae, 4 days after infestation, read-out: effect in at least one of the two categories (mortality or growth inhibition). The protocol:
Example B2: Diabrotica Balteata (Corn Root Worm)
Maize sprouts placed onto an agar layer in 24-well microtiter plates were treated with aqueous test solutions prepared from 10′000 ppm DMSO stock solutions by spraying. After drying, the plates were infested with L2 larvae (6 to 10 per well). The samples were assessed for mortality and growth inhibition in comparison to untreated samples 4 days after infestation.

In assay [3] the test system is Plutella xylostella (Diamond Back Moth). In words: Plutella xylostella L2 larvae on artificial diet. Particulars: 120 h, application rate of 200 ppm, L2 larvae, 5 days after infestation, read-out: effect in at least one of the two categories (mortality or growth inhibition). How it is done:
Example B7: Plutella xylostella (Diamond Back Moth)
24-well microtiter plates with artificial diet were treated with aqueous test solutions prepared from 10′000 ppm DMSO stock solutions by pipetting. After drying, the plates were infested with L2 larvae (10 to 15 per well). The samples were assessed for mortality and growth inhibition in comparison to untreated samples 5 days after infestation.

In assay [4] the test system is Spodoptera littoralis (Egyqptian Cotton Leaf Worm). In words: Spodoptera littoralis L1 larvae on sprayed cotton leaf discs. Particulars: foliar, 72 h, application rate of 200 ppm, L1 larvae, 3 days after infestation, read-out: control (mortality, anti-feeding effect, growth inhibition). How it is done:
Example B8: Spodoptera littoralis (Egyqptian Cotton Leaf Worm)
Cotton leaf discs were placed onto agar in 24-well microtiter plates and sprayed with aqueous test solutions prepared from 10′000 ppm DMSO stock solutions. After drying the leaf discs were infested with five L1 larvae. The samples were assessed for mortality, anti-feeding effect, and growth inhibition in comparison to untreated samples 3 days after infestation. Control of Spodoptera littoralis by a test sample is given when at least one of the categories mortality, anti-feedant effect, and growth inhibition is higher than the untreated sample.

In the case of `CCS(=O)(=O)c1ccc(C(=O)O)nc1-c1nnc(-c2cc(C(F)(F)F)ccn2)n1C` [A34, 5-ethylsulfonyl-6-[4-methyl-5-[4-(trifluoromethyl)-2-pyridyl]-1,2,4-triazol-3-yl]pyridine-2-carboxylic Acid], in assay [1], the percent effect (mortality, anti-feeding or growth inhibition) at 12.5 ppm was at least 80%.
One may read the mortality as the percentage killed. Turning to `CCS(=O)(=O)c1cc(N)c(Br)nc1-c1nnc(-c2cc(C(F)(F)F)ccn2)n1C` [A45], the percent effect (mortality or growth inhibition) at 200 ppm in assay [2] and in assay [3] was at least 80% in each case. The mortality at 200 ppm in assay [4] was at least 80%. For the same compound, in assay [1], the percent effect (mortality, anti-feeding or growth inhibition) at 12.5 ppm was at least 80%.
